Laboratory results: patent publication US5684005A, “Pharmacologically active CNS compounds” (Glaxo Wellcome Inc., priority 1988, dated 1997)

Assays:
[1] = Duration of action / clearance from central nervous system; conditions: in words
[2] = system: release of glutamate; conditions: in words, literature; cited from earlier work
[3] = system: release of aspartate; conditions: in words, literature; cited from earlier work

Row | SMILES | duration of action [1] | inhibition of glutamate release [2] | inhibition of aspartate release [3]
1 | CN1CCN(c2nc(N)c(-c3cc(Cl)cc(Cl)c3Cl)c(C(F)(F)F)n2)CC1 [Example 1, 4-Amino-2-(4-methylpiperazin-1-yl)-5-(2,3,5-trichlorophenyl)-6-trifluoromethylpyrimidine] | long acting |  | 
2 | COCc1nc(N)nc(N)c1-c1cc(Cl)cc(Cl)c1Cl [Example 2, 2,4-Diamino-5-(2,3,5-trichlorophenyl)-6-methoxymethyl pyrimidine] | short acting |  | 
3 | CN1CCN(c2ncc(-c3cc(Cl)cc(Cl)c3Cl)c(N)n2)CC1.CS(=O)(=O)O [Example 3, 4-Amino-2-(4-methylpiperazin-1-yl)-5-(2,3,5-trichlorophenyl) pyrimidine mesylate] | long acting |  | 
4 | Nc1nc(N)c(-c2cc(Cl)cc(Cl)c2Cl)c(C(F)(F)F)n1 [Example 4, 2,4-Diamino-5-(2,3,5-trichlorophenyl)-6-trifluoromethyl pyrimidine] | long acting |  | 
5 | Nc1nnc(-c2cccc(Cl)c2Cl)c(N)n1 [lamotrigine, 3,5-diamino-6-(2,3-dichlorophenyl)-1,2,4-triazine] |  | shown to inhibit the release | shown to inhibit the release
